Test results from patent US11358973B2, “Di(hetero)aryl macrocyclic compound for inhibiting protein kinase activity” (Shenzhen TargetRx, Inc., priority 2018, dated 2022).
Where two headings read alike, the source gives them in different places.

Tests used:
TRKA kinase = TRKA kinase (Homo sapiens, UniProt P04629); assay: Biochemical kinase analysis (HTRF), TRKA; details: 23° C., read-out: Kinase IC50 (nM) TRK A
Protocol: (§1) Inhibition of TRKA, TRKB, TRKC kinases can be measured by HTRF ([…]) method. The reaction was performed in a 384-well plate at 23° C. with a volume of 20 μL. TRKA TRKB or TRKC kinase were mixed with pre-formulated and diluted compounds of different concentrations for ten minutes in duplicate for each concentration, wherein 11 concentrations made with a 3-fold gradient dilution from the starting concentration of 300 nM were made and the final concentration of DMSO was 2%. The corresponding substrate and ATP were added thereto, and reacted at room temperature for 20 minutes (both a negative and a positive control were set: negative control is blank control, positive control is Entrectinib). After the reaction, detection reagent was added thereto (reagent in HTRF Kinase TK kit), and after incubation at room temperature for 30 minutes, detection was carried out by PerkinElmer Envision microplate reader for determining enzyme activity in the presence of the compounds of the present disclosure at various concentrations, and the inhibitory activity of different concentrations of compounds against enzyme activity was calculated. After that, in accordance with four-factors function and Graphpad 5.0 software, inhibitory activity on enzyme activity under different concentrations of compounds was fitted and IC50 values were calculated.

TRKB kinase = TRKB kinase (Homo sapiens, UniProt Q16620); assay: Biochemical kinase analysis (HTRF), TRKB; details: 23° C., read-out: Kinase IC50 (nM) TRK B
Sequence of TRKB kinase (Q16620 32-822): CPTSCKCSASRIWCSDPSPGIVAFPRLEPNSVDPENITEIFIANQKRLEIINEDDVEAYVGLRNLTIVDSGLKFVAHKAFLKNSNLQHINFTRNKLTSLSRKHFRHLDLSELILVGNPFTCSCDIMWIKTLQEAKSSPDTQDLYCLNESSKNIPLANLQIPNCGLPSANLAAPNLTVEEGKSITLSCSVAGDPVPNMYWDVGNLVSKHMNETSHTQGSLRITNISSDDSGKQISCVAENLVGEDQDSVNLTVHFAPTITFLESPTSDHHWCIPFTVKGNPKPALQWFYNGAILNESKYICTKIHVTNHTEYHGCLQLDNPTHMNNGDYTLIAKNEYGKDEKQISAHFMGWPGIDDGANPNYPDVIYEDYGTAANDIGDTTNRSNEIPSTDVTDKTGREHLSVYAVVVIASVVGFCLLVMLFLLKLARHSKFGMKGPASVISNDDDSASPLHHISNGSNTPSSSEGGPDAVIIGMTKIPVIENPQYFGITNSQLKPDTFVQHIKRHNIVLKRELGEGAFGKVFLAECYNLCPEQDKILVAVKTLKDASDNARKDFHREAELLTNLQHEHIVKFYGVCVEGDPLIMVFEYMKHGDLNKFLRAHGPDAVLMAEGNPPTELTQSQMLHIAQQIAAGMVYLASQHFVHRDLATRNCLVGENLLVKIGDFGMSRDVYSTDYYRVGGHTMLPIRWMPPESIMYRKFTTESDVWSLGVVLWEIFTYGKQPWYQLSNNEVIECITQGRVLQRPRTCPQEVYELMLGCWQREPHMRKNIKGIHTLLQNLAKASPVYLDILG
Protocol: as §1

TRKC kinase = TRKC kinase (Homo sapiens, UniProt Q16288); assay: Biochemical kinase analysis (HTRF), TRKC; details: 23° C., read-out: Kinase IC50 (nM) TRK C
Sequence of TRKC kinase (Q16288 32-839): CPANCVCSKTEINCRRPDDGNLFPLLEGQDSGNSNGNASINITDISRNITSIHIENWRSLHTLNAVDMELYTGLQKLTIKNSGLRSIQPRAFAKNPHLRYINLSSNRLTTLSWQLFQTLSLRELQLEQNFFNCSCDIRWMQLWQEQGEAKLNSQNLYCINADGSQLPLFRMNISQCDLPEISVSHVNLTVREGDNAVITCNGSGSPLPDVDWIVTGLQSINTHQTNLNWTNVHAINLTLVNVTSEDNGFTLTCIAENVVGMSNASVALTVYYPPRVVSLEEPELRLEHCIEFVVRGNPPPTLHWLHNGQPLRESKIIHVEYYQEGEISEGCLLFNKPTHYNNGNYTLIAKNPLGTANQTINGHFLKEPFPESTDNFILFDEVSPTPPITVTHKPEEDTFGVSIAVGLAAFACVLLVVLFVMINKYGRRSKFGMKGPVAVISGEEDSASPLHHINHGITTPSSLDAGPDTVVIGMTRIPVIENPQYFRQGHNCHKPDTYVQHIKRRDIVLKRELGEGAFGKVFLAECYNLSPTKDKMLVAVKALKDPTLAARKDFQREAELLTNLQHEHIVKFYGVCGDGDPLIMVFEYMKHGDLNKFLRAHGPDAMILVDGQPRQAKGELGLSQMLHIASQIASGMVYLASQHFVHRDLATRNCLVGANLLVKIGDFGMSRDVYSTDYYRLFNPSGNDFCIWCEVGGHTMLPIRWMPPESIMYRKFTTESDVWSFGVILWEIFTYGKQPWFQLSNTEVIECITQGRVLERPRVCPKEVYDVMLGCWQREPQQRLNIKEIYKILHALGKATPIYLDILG
Protocol: as §1

KM12 cell line = assay: KM12 cell proliferation analysis (CellTiter-Glo); type: cell-based; details: Homo sapiens, 72 h
Protocol: The CGT method was used to detect the in vitro anti-proliferative activity of the compounds of the present disclosure on tumor cells cultured in vitro. The KM12 cell line was maintained in RPMI-1640 medium containing 10% fetal bovine serum and antibiotics, the cells in the logarithmic growth phase were harvested and planted in a 96-well plate. The plate was incubated in an incubator at 37° C., containing 5% carbon dioxide gas overnight. After the test compounds were dissolved in DMSO, a 3-fold concentration gradient dilution with 9 compound concentrations was made. Pre-prepared compounds of different concentrations were transferred to the cell plate in triplicate for each concentration, and continue culturing for 72 h. The final concentration of DMSO in the system was 0.1%, and the initial concentration of the test compound was 300 nM.
CellTiter-Glo reagent was added to the cell plate, and incubated at room temperature for 30 minutes to stabilize the optical signal. Detection was carried out by PerkinElmer Envision microplate reader for determining the inhibitory activity of the compound of the present disclosure at various concentrations on cell proliferation. The inhibitory activity of compounds at different concentrations on cell proliferation was fitted according to Graphpad 5.0 software, and IC50 values were calculated.

[1] = Pharmacokinetic experiment in rats; type: in vivo, Sprague-Dawley rats; set-up: Cl_pred (L/kg): unit not given here; details: rat; for AUC(0-t) / Cmax / Tmax / half-life / AUC(0-inf) / MRT inf / bioavailability: male, Sprague-Dawley, plasma; for AUC(0-inf): read-out: AUCINF_pred; for MRT inf: read-out: MRTINF_pred; for bioavailability: PO 10 mg/kg vs IV 3 mg/kg
Protocol: 6 male Sprague-Dawley rats (7-8 weeks old, and weighing approximately 210 g) were divided into 2 groups with 3 rats in each group. The rats were intravenously or orally administered a single dose of compounds (3 mg/kg intravenously, 10 mg/kg orally) to compare pharmacokinetic differences.
The rats were feeded on standard food and water. Fasting was started 16 hours before the test. The drug was dissolved in PEG400 and dimethyl sulfoxide. The blood samples were collected from eyelids at the time points of 0.083 hour, 0.25 hour, 0.5 hour, 1 hour, 2 hours, 4 hours, 6 hours, 8 hours, 12 hours, and 24 hours after administration.
Rats were briefly anesthetized after inhalation of diethyl ether and 300 μL of blood sample was collected from the eyelids into test tubes. There was 30 μL of 1% heparin salt solution in the test tube. Tubes were dried at 60° C. overnight before use. After the blood sample was collected at the last time point, the rats were sacrificed after ether anesthesia.
Immediately after the collection of the blood sample, the test tube was gently inverted at least 5 times to ensure sufficient mixing and then placed on ice. The blood sample was centrifuged at 5000 rpm at 4° C. for 5 minutes to separate the plasma from the red blood cells. 100 μL of plasma was aspirated into a clean plastic centrifuge tube with a pipette, marking with the name of the compound and time point. Plasma was stored at −80° C. prior to analysis. The concentration of the compound of the present disclosure in plasma was determined by LC-MS/MS. The pharmacokinetic parameters were calculated based on the blood concentration of the drug for each animal at different time points.

Sequence of TRKA kinase (P04629 33-796): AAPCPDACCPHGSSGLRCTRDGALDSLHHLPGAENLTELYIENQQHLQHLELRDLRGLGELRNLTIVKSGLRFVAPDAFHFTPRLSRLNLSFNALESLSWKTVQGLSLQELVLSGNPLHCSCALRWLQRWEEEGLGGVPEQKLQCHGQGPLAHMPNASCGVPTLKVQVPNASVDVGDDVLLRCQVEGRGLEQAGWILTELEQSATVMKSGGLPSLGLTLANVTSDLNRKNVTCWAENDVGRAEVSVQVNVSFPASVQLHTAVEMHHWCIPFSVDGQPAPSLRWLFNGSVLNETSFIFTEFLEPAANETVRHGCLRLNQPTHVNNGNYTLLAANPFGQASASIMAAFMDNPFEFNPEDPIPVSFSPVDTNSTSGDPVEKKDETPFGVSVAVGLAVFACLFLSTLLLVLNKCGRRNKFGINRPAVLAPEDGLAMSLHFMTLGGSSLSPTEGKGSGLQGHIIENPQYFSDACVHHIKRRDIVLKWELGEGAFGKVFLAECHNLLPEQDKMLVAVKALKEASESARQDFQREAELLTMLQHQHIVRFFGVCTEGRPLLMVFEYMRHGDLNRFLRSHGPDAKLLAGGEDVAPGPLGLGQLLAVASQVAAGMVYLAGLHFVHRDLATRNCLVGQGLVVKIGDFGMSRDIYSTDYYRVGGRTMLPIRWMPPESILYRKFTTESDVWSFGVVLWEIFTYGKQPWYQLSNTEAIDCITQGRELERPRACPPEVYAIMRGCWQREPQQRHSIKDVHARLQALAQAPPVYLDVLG

Compound | IC50 (TRKA kinase) [nM] | IC50 (TRKB kinase) [nM] | IC50 (TRKC kinase) [nM] | IC50 (KM12 cell line) [nM] | AUC(0-t) ([1]; IV 3 mg/kg) [ng·h/mL] | Cmax ([1]; IV 3 mg/kg) [ng/mL] | Tmax ([1]; IV 3 mg/kg) [h] | half-life ([1]; IV 3 mg/kg) [h] | AUC(0-inf) ([1]; IV 3 mg/kg) [ng·h/mL] | MRT inf ([1]; IV 3 mg/kg) [h] | AUC(0-t) ([1]; PO 10 mg/kg) [ng·h/mL] | Cmax ([1]; PO 10 mg/kg) [ng/mL] | Tmax ([1]; PO 10 mg/kg) [h] | half-life ([1]; PO 10 mg/kg) [h] | bioavailability [1] [%] | AUC(0-inf) ([1]; PO 10 mg/kg) [ng·h/mL] | MRT inf ([1]; PO 10 mg/kg) [h] | Cl_pred (L/kg) ([1]; IV 3 mg/kg) | Vz_pred ([1]; IV 3 mg/kg) [L/kg] | Vz_pred ([1]; PO 10 mg/kg) [L/kg] | other results
O=C1CCOc2ccc(F)cc2[C@@H]2CCCN2c2ccn3ncc(c3n2)N1 [Compound L-1-B, (6S)-9-fluoro-13-oxa-2,17,20,21,24-pentaazapentacyclo[16.5.2.0^2,6.0^7,12.0^21,25]pentacosane-1(24),7,9,11,18(25),19,22-heptaene-16-one] | 21.1 | 15.5 | 14.2 | 162 | – | – | – | – | – | – | – | – | – | – | – | – | – | – | – | – | –
C[C@H]1CC(=O)Nc2cnn3ccc(nc23)N[C@H](C)c2cc(F)ccc2O1 [Compound T-2-A, (7S,13R)-11-fluoro-7,13-dimethyl-6,7,13,14-tetrahydro-1,15-ethenopyrazolo[4,3-f][1,4,8,10]benzoxatriazacyclotiidecin-5(6H)-one] | 0.19 | 0.1 | 0.06 | 1.6 | 6560 | 2100 | 0.08 | 5.59 | 6620 | 3.44 | 11500 | 994 | 2.17 | 4.84 | 52.7 | 12900 | 7.37 | 0.45 | 2.67 | 6.70 | Cl_pred (L/kg) ([1]; PO 10 mg/kg): 0.83
O=C1CCOc2ccc(F)cc2C2CCCN2c2ccn3ncc(c3n2)N1 (racemic) [Compound 9a, 9-fluoro-13-oxa-2,17,20,21,24-pentaazapentacyclo[16.5.2.0^2,6.0^7,12.0^21,25]pentacosane-1(24),7,9,11,18(25),19,22-heptaene-16-one] | 0.17 | 0.1 | 0.1 | 1.78 | – | – | – | – | – | – | – | – | – | – | – | – | – | – | – | – | –
C[C@H]1CNC(=O)c2cnn3ccc(nc23)N[C@H](C)c2cc(F)ccc2O1 [TPX-0005, reference compound] | – | – | – | 1.97 | 3560 | 2190 | 0.08 | 5.77 | 3580 | 1.76 | 5470 | 732 | 1.67 | 0.76 | 46.1 | 5590 | 5.42 | – | 4.46 | 15.81 | –
C[C@H]1CC(=O)Nc2cnn3ccc(nc23)N2CCC[C@@H]2c2cc(F)ccc2O1 [Compound L-2-A, (6R,14S)-9-fluoro-14-methyl-13-oxa-2,17,20,21,24-pentaazapentacyclo[16.5.2.0^2,6.0^7,12.0^21,25]pentacosane-1(24),7,9,11,18(25),19,22-heptaene-16-one] | 0.17 | 0.1 | 0.1 | 0.25 | 2480 | 1620 | 0.08 | 2.41 | 2480 | 1.2 | 4470 | 1410 | 0.5 | 2.02 | 54.2 | 4530 | 2.8 | 1.23 | 1.85 | 8.50 | Cl_pred (L/kg) ([1]; PO 10 mg/kg): 2.44
C[C@H]1Nc2ccn3ncc(c3n2)NC(=O)C(C)(C)COc2ccc(F)cc21 [Compound T-3] | 0.34 | 0.57 | 0.52 | – | – | – | – | – | – | – | – | – | – | – | – | – | – | – | – | – | –
